From US4070473A, “Piperidino-butyrophenones” (AB Ferrosan, priority 1973, dated 1978)
Counter-ions that a name gives are not always drawn. Like-named read-outs stand apart in the source and are kept apart here.

Tests used:
[1] = system: aggressive behaviour in male mice; assay: Inhibition of aggressive behaviour in male mice (Test 1); assay type: in vivo; conditions: for ED50: Mus musculus, sc, read-out: Inhibition of agression, mice ED50
Description: Methylperon -- formula hereinbefore mentioned (R3 = H; R4 = CH3) chlorpromazine [drawing 23] in each of the following established standard tests: 1. Inhibition of aggressive behaviour in male mice.
1. Valzelli, L. in Aggressive Behaviour, Eds. Garattini and Sigg, p. 70 (1969)

[2] = system: exploratory behaviour, mice; assay: Inhibition of climbing in mice (inhibition of exploratory behaviour) (Test 2); assay type: in vivo; conditions: Mus musculus, sc, read-out: Inhibition of exploratory behaviour, mice ED50
Description: 2. Inhibition of climbing in mice (inhibition of exploratory behaviour).
2. Sandberg, S. in Arzneimittelforschung, 9, 203 (1958)

[3] = system: Amphetamine antagonism, rats; assay: Amphetamine antagonism in rats (antipsychotic effect) (Test 3); assay type: in vivo; conditions: for ED50: Rattus norvegicus, sc, read-out: Amphetamine antagonism, rats ED50; for activity in Test 3 (amphetamine antagonism; antipsychotic/anxiolytic effect), in words: Table-Test No. 3
Description: 3. Amphetamine antagonism in rats (antipsychotic effect).
3. Randrup, A. et al. in Acta Pharmacol. (Kph), 20, 145 (1963)

[4] = Cataleptogenic effect in rats (measure of the extrapyramidal side effects) (Test 4); assay type: in vivo; conditions: rat, in vivo, sc
Description: (§1) 4. Cataleptogenic effect in rats (measure of the extrapyramidal side effects).
(§2) 4. Stille, G. in Schweiz.

[5] = system: conditioned avoidance response, rats; assay: Inhibition of conditioned behaviour (conditioned avoidance response) in rats (Test 5); assay type: in vivo; conditions: Rattus norvegicus, sc, read-out: Inhibition of conditioned avoidance response, rats ED50
Description: 5. Inhibition of conditioned behaviour in rats. These tests were in accord with published test procedures and protocols, for instance: 5.

[6] = Toxicity, subcutaneously on mice; conditions: mouse, in vivo, sc
Description: The antipsychotic effect as shown in Test No. 3 is further confirmed by the blocking of apomorphine emesis in dogs. Ref: Janssen, P. A. J. et al. Arzneimittelforschung, 1, 1196 (1965) Furthermore, the compounds have a pronounced serotonine inhibiting effect, Ref: Alps, J. et al. Br. J. Pharmac. 44, 52 (1972) and a strong anti-inflammatory effect (measured with carrageenin-induced edema in rats). Ref: Takashima, T. et al. Arzneimittelforschung 22, 711 (1972) Their toxicity is rather low, 200 - 300 mg/kg. In comparison, the toxicity for haloperidol is 70 mg/kg and for methylperon is 280 mg/kg (all toxicities being performed subcutaneously on mice).

[7] = system: Cataleptogenic effect, rats; assay: Cataleptogenic effect in rats (measure of the extrapyramidal side effects) (Test 4); assay type: in vivo; conditions: rats, Table-Test No. 4
Description: as §1, §2

[8] = rats, s.c., measure of the extrapyramidal side effects, read-out: Cataleptogenic effect, rats ED50

| SMILES | ED50 ([1]; mice, s.c.) [mg/kg] | ED50 ([2]; mice, s.c.) [mg/kg] | ED50 ([3]; rats, s.c.) [mg/kg] | ED50 [4, 8] [mg/kg] | ED50 ([5]; rats, s.c.) [mg/kg] | activity in Test 1 (antiaggressive), in words ([1]; Table-Test No. 1) | activity in Test 3 (amphetamine antagonism; antipsychotic/anxiolytic effect), in words [3] | ED50 [4] [mg/kg] | LD50 [6] [mg/kg] | ED50 [1] [mg/kg] | ED50 [2] [mg/kg] | ED50 [3] [mg/kg] | extrapyramidal / cataleptogenic effect, in words [7] | ED50 [5] [mg/kg] |
| --- | --- | --- | --- | --- | --- | --- | --- | --- | --- | --- | --- | --- | --- | --- |
| CCC1(OC)CCN(CCCC(=O)c2ccc(F)cc2)CC1 [Example 5] | 0.7 | 0.7 | 0.1 | 10 | 1.5 |  |  |  |  |  |  |  |  |  |
| COC1(C(C)C)CCN(CCCC(=O)c2ccc(F)cc2)CC1.Cl [Example 10, gamma-(4-isopropyl-4-methoxy-piperidino)-p-fluorobutyrophenone hydrochloride] | 0.15 | 1.1 | 0.1 | 5 | 1.2 |  |  |  |  |  |  |  |  |  |
| CCCC1(OC)CCN(CCCC(=O)c2ccc(F)cc2)CC1 [Example 8] | 0.5 | 3.1 | 1 | 6.2 | 5.5 |  |  |  |  |  |  |  |  |  |
| CCCCCC1(OCC)CCN(CCCC(=O)c2ccc(F)cc2)CC1 [Example 13] | 0.5 | 1.3 | 0.35 | 6.8 |  |  |  |  |  |  |  |  |  |  |
| CCCCOC1(C)CCN(CCCC(=O)c2ccc(F)cc2)CC1.Cl [Example 4, gamma-(4-methyl-4-butoxypiperidino)-p-fluorobutyrophenone hydrochloride] | 0.35 | 2 | 0.75 | 20 | 2.5 |  |  |  |  |  |  |  |  |  |
| CCOC1(C)CCN(CCCC(=O)c2ccc(F)cc2)CC1 [Example 2] | 0.7 | 1 | 0.1 | 6 | 1.3 |  |  |  |  |  |  |  |  |  |
| CC1CCN(CCCC(=O)c2ccc(F)cc2)CC1 [Methylperon, reference compound] | 2.2 | 2 | 3.5 |  | 6.8 | not very active | not very active | 12 | 280 |  |  |  |  |  |
| CCCOC1(C)CCN(CCCC(=O)c2ccc(F)cc2)CC1 [Example 3] | 0.35 | 1 | 0.2 | 7 | 0.5 |  |  |  |  |  |  |  |  |  |
| O=C(CCCN1CCC(O)(c2ccc(Cl)cc2)CC1)c1ccc(F)cc1 [Haloperidol, reference compound] |  |  |  | 0.27 |  |  |  |  | 70 | 0.8 | 1.3 | 0.03 | pronounced cataleptogenic effect in rats | 0.15 |
| CN(C)CCCN1c2ccccc2Sc2ccc(Cl)cc21 [Chlorpromazine, reference compound] |  |  |  | 4.5 |  |  | not very active |  |  | 0.4 | 0.75 | 1.2 |  | 4.5 |
| CCCCC1(OCC)CCN(CCCC(=O)c2ccc(F)cc2)CC1 [Example 12] | 0.35 | 1.6 | 0.07 | 3 | 5 |  |  |  |  |  |  |  |  |  |
| CCCOC1(CC)CCN(CCCC(=O)c2ccc(F)cc2)CC1 [Example 7] | 0.7 | 1.2 | 0.35 | 6 |  |  |  |  |  |  |  |  |  |  |
| CCOC1(CC)CCN(CCCC(=O)c2ccc(F)cc2)CC1 [Example 6, gamma-(4-ethyl-4-ethoxypiperidino)-p-fluoro-4-butyrophenone hydrochloride] | 0.08 | 1.4 | 0.1 | 5 | 1.5 |  |  |  |  |  |  |  |  |  |
| COC1(C)CCN(CCCC(=O)c2ccc(F)cc2)CC1 [Example 1, gamma-(4-methyl-4-methoxy-piperidino)-p-fluorobutyrophenone] | 0.2 | 0.65 | 0.35 | 10 | 0.6 |  |  |  |  |  |  |  |  |  |
